Assay results published in a melting point compilation (Tetko et al.; mined from patent text by program, amines drawn as free bases though some values may be those of a salt).

melting point | SMILES
165 to 167 °C | Cc1cc(OC/C=C/c2ccc(C(C)C)cc2)c(C)c(C)c1NC=O
99 to 101 °C | c1ccc2nc(COc3cccc4ccccc34)ccc2c1
94 to 96 °C | CCCc1c(OCCCOc2ccc(C(=O)C(=O)O)cc2)ccc(C(C)=O)c1OC
189 to 190 °C | N=C1NC(=O)C(Cc2ccc(OCCN3CCOCC3)cc2)S1 (stereo unspecified)
143 to 145 °C | CCOCc1nc2c(N)nc3ccccc3c2n1NC1CCCCC1
63 to 64 °C | COc1ccc(-n2cc(C)cc2-c2ccc(S(N)(=O)=O)cc2)cc1
83.5 to 84 °C | CS(=O)(=O)N[C@@H](CCCCNC(=O)OCc1ccccc1)C(=O)O
323 to 325 °C | O=C1NC(=O)c2c1cc1ccc3c(c1c2-c1cccnc1)OCO3
121 to 123 °C | NC[C@H]1CCc2[nH]c3ccc(F)cc3c2C1
242 °C | O=S(=O)(c1ccccc1)n1c2ccc(Br)cc2c2cc(Cl)cnc21
101 °C | NCCCN(CC1COc2ncccc2O1)c1ccc(Cl)nn1 (stereo unspecified)
104 to 106 °C | CCCc1nn(C)c2c(=O)n(CCCc3ccc(OC(C)(C)C(=O)O)cc3)c(C)nc12
131 to 132 °C | CC12CC3CC(C)(C1)CC(C(=O)NCCc1cccs1)(C3)C2
169 to 171 °C | NS(=O)(=O)c1ccc(Br)c(Br)c1
< 30 °C | C#CCOCCCCCCCCCC(=O)O
158 to 160 °C | COC(OC)c1cnc(-c2ccccc2)[nH]1
105 to 106 °C | CCOC(=O)/C=C(/c1ccc(OC)cc1)c1cccc(C#N)c1
112 to 114 °C | CN(C)C(=O)c1ccccc1Sc1ccc(Br)cc1[N+](=O)[O-]
99 to 101 °C | O=C(NC1CCCCC1)N(Cc1ccc(Cl)cc1)C1CCCC1
97 to 98 °C | O=C(NCc1ccc([N+](=O)[O-])cc1)C(F)(F)F
92.2 to 93.6 °C | CCCCCS(=O)(=O)NC(=O)CCc1ccc(OCCOC)cc1Oc1ncc(Cl)cc1Cl
53 to 58 °C | NCCON=C(CCCCCCNC(=NS(=O)(=O)c1ccc(Cl)cc1)N1CC(c2ccccc2)C(c2ccc(Cl)cc2)=N1)c1ccc(C(F)(F)F)cc1 (stereo unspecified)
207 to 209 °C | CCCc1nc2c(N)nc3ccccc3c2n1CCCC(CC(C)C)=NO
183 to 185 °C | CCOC1C(NC(=O)C(F)(F)F)CC(OC)OC1C (stereo unspecified)
177 to 178 °C | CC(=N)NS(=O)(=O)c1cc(I)cc(C#N)c1

melting point | SMILES
184 to 186 °C | CN(C(=O)C1CCCCC1)c1cccc(-c2nc(=O)c3ccccc3s2)n1
149 to 151 °C | CCNCc1cnc2c(C)c(NC(=O)c3ccc(OC[C@@H]4CCCO4)cc3)ccc2c1
156 to 159 °C | Nc1nc(OCCc2ccc(Cl)cc2)nc2c1ncn2C1OC(CO)C(O)C1O (stereo unspecified)
215 to 218 °C | N#CC(C#N)=CNc1ccc(C(N)=O)cn1
170 to 172 °C | CCc1nc(OC)c(NC(=O)N2CCN(c3cc(OC)cc(OC)c3)CC2)cc1C(=O)Nc1cc(CO)cc(Nc2c3ccccc3nc3ccccc23)c1
113 to 116 °C | Cc1ccc2c(c1)COC21CCN(CCCCCCN2CCC3(CC2)OCc2cc(C)ccc23)CC1
103 to 104 °C | COCOc1cccc(-c2ccc(-c3ccc(C(=O)O)cc3)cc2-c2ccc3c(c2)C(C)(C)CCC3(C)C)c1
117 to 118 °C | CCOC(=O)c1cn2c(cc(OC(C)C)c3ccc(OC)cc32)n1
184 to 185 °C | NC(=O)C1CCc2c(sc3cc(F)ccc23)C1 (stereo unspecified)
> 200 °C | CCOC(=O)CC[C@H](NC(=O)c1ccc(CCc2cnc3nc(NC(C)=O)nc(O)c3c2)cc1)C(=O)OCC
237 to 238 °C | Cc1cc(C(N)=O)ncc1C(c1c(F)ccc(F)c1F)S(=O)(=O)c1ccc(C(F)(F)F)nc1 (stereo unspecified)
> 290 °C | Cc1[nH]c2ccccc2c1C1=C(c2c(C)[nH]c3ccccc23)C(=O)N(C)C1=O
152 °C | O=C(O)C1=CS[C@@H]2[C@@H]([C@H](O)c3cn4c(n3)SCC4)C(=O)N12
145 °C | NC(=O)C1CCCc2ccc(-c3ccccc3)nc21 (stereo unspecified)
222 to 224 °C | COc1ccc(C(=O)c2sc(Nc3ccc(OCc4ccccc4)cc3)nc2N)cc1
164 to 166 °C | O=C(/C=C/C=C(c1ccc(C(F)(F)F)cc1)c1ccc(C(F)(F)F)cc1)Nc1cccc2cnccc12
97 to 98 °C | CCOc1ccc(N(C)CCCN)cc1
178 to 180 °C | O=C1N=C(Cc2c[nH]c3ccccc23)C(CCc2cc(C(F)(F)F)cc(C(F)(F)F)c2)O1 (stereo unspecified)
91 to 93 °C | COc1cc(OC)c2c(=O)cc(-c3ccccc3Cl)oc2c1C1CCN(C)C1CO (stereo unspecified)
91.5 to 93.5 °C | CC1(C)Oc2c(ccc(Cl)c2N)C1=O
205 °C | CNc1nc(N)c(SC)c(Cl)n1
245 to 250 °C | CC(C)(C)C1C(O)=C(C2=NS(=O)(=O)c3c(NS(C)(=O)=O)cccc32)C(=O)N1Cc1ccc(F)cc1 (stereo unspecified)
76 to 78 °C | CC1(C)COC1(Cn1cncn1)c1ccc(F)cc1F (stereo unspecified)
121 °C | CCC1(C)Cc2cc(OC)c(Cl)c(Cl)c2C1=O (stereo unspecified)
130 to 133 °C | NC(=NO)c1ccc(C(F)(F)F)cn1

melting point | SMILES
76 to 78 °C | Cc1nc(CNC(=O)c2ccnc(N3CCN(Cc4ccc(F)cc4)C3=O)c2)cs1
202 to 204 °C | COC(=O)c1ccc(NS(=O)(=O)c2sc3ccc(F)cc3c2C)c(S(C)(=O)=O)c1
108 to 110 °C | Cc1ccc(P(c2ccc(C)cc2)c2cccc3c2-c2c(cccc2P(c2ccc(C)cc2)c2ccc(C)cc2)OCCCO3)cc1
196 to 198 °C | O=C1CCC(N2Cc3c(OCc4ccc(CN5CCNCC5)cc4)cccc3C2=O)C(=O)N1 (stereo unspecified)
132 °C | Fc1ccc(-c2nc3ccccc3nc2-c2ccc(F)cc2)cc1
119 to 121 °C | Cc1cc(-c2nncc3c(C(C)(C)C)c(OCc4ccncc4)nn23)no1
66 to 67 °C | C=Cc1ccc2c(c1)c1ccccc1n2CC
141 to 143 °C | C=Cc1ncc2c(c1COC)c1c(OCc3ccccc3)cccc1n2S(=O)(=O)c1ccc(C)cc1
160 to 165 °C | O=[N+]([O-])c1c(-c2ccc(Cl)cc2)[nH]c(SC(F)(F)F)c1Br
55 °C | CCOC(=O)CN(Cc1cccnc1)c1ccc(C(O)(C(F)(F)F)C(F)(F)F)cc1
138 to 140 °C | O=C(C=Cc1ccc(N2CCOCC2)cc1)c1ccc2c(c1)CCCC2
126 to 134 °C | CN1C(=O)C2C3CCC(CC3)C2(c2ccc(Cl)c(Cl)c2)C1=O (stereo unspecified)
68 to 70 °C | CC1=C(C=O)COc2ccccc21
147 to 149 °C | c1cc(OCCCc2nnn[nH]2)cc(OCc2ccc3ccccc3n2)c1
214 to 216 °C | Cc1c(C(=O)O)oc2c(C(=O)c3ccc(Cl)cc3)cc(C(C)(C)C)c(O)c12
170 °C | O=C(Nc1ccc(O)cc1[N+](=O)[O-])OCCCl
114 to 115 °C | CCOC(=O)Cn1nc2ccc(Cl)nn2c1=O
126 to 131 °C | Cn1c(COc2ccc(CC3SC(=O)NC3=O)cc2)nc2ccc(Oc3ccc(O)cc3)cc21 (stereo unspecified)
78 °C | N#Cc1ccc(C(Cc2ccc(C(F)(F)F)cn2)Cn2cncn2)cc1 (stereo unspecified)
152 to 155 °C | CCN1CCC(CC(=O)NOC(C)(C)C)(S(=O)(=O)c2ccc(Oc3ccccc3)cc2)CC1
174 to 176 °C | CC(C(=O)O)(c1ccc(N2CCCC2)cc1)c1ccc(N2CCCC2)cc1
243 to 245 °C | Cc1nc2cc(F)ccc2c(=O)n1C1CCC(=O)NC1=O (stereo unspecified)
230 °C | CN1CCC(NC(c2cccc(O)c2)c2nc3ccccc3[nH]2)CC1 (stereo unspecified)
255 to 257 °C | CC(C)CNC(=O)c1ccc(C(=O)O)cc1[N+](=O)[O-]
222 to 224 °C | Cn1c(=O)c2c(c3ccccc31)c1cc(Cl)ccc1n2CCN

melting point | SMILES
112 °C | Cc1nc2c(N)nc3ccccc3c2n1CCOC/C=C/c1ccccc1
157 to 159 °C | Cc1nn(-c2ccccn2)c2nc3ccccc3c(C)c12
82 °C | N#Cc1ccccc1Sc1ccc(Cl)cc1
239 to 241 °C | COc1ccc(N2CCN(Cc3cnc(N)nc3N)CC2)cc1
> 320 °C | Nc1nc2c(sc(=O)n2Cc2ccc(Br)cc2)c(=O)[nH]1
200 to 201 °C | COc1cc(NC(C)=O)c(Cl)cc1C(=O)NN1CCN2CCCCC2C1 (stereo unspecified)
160 to 162 °C | C=C1C(NC(=O)C(F)(F)F)CC(OC)OC1C (stereo unspecified)
180 to 183 °C | Cn1cc(C(=O)NCc2ccc(Cl)cc2)c(=O)c2cc(CN3CCOCC3)cc(C#CCN3CCC(O)CC3)c21
111 to 113 °C | Cc1cc(F)cc([N+](=O)[O-])c1N
117 to 118 °C | CCCCCC(=O)N(NC(=O)c1ccccc1)C(C)(C)C
250 °C | Cc1cc2c(c(NC(C(N)=O)c3c(Cl)cccc3Cl)c1)C(=O)CC2 (stereo unspecified)
230 to 231 °C | CCOc1ccc(S(=O)(=O)NCc2ccccn2)cc1-c1nc2cccnc2c(=O)[nH]1
235 °C | N#Cc1ccc2c(c1)Nc1ccc(Cl)cc1S2
114 to 116 °C | CCOC(=O)[C@@H]1Cc2ccccc2N1C(=O)CC[C@@H](NC(=O)OCc1ccccc1)C(=O)OCc1ccccc1
65 to 70 °C | CN(CCO)CC1(SSC2(CN(C)CCO)CCCCC2)CCCCC1
84 to 86 °C | OC(CC1CCN(Cc2ccccc2)CC1)c1ccc(F)cc1 (stereo unspecified)
126 to 127 °C | CS(=O)(=O)c1ccc(C2=C(c3ccccc3)C(=O)C3(CCCCC3)O2)cc1
166 to 167 °C | NC(=O)c1cccc(-c2c(F)ccc3cc(Cc4cccc(C(F)(F)F)c4)sc23)c1
179 to 180 °C | Cc1ccc(-n2nc(C#N)cc2-c2ccc(S(C)(=O)=O)cc2)cc1Br
121 to 122 °C | COc1c(C)c(C)c(OC)c(CO)c1C
108 to 110 °C | CCCN=C(NC#N)NCCSCc1[nH]cnc1C
172 to 174 °C | Cc1nc2c(N)nc3c(c2n1CCCCCS(C)(=O)=O)CCCC3

SMILES | melting point
CC(C)(C)CCN1C(=O)C(N)C(=O)N(c2ccccc2F)c2ccccc21 (stereo unspecified) | 98 to 100 °C
CC(=O)C1CCC2C3CCC4CC(O)C(C)CC4(C)C3C(=O)CC12C (stereo unspecified) | 142 to 146 °C
CCCc1nc(N)nc(N)c1N1CCNCC1 | 175 to 176 °C
NCC(CC(=O)O)C1CCC1 (stereo unspecified) | 115 to 117 °C
